Laboratory results published in paper PMC11862134 (Nature Communications, 2025).
No end group written: not given here.

Experiments:
BAM1 and BAM3 receptor = conditions: upon reaching the leaves, drought stress; cited from earlier work
[1] = target: GST-tagged TaCLV1-LRR (extracellular domains of TaCLV1, residues 58-668) (wheat (Triticum aestivum L.)); assay: MST

Molecule	interaction with BAM1 and BAM3 receptor (BAM1 and BAM3 receptor)	Kd [1]
CLE25: CLE25 peptide, messenger of water deficiency from roots to leaves (RKVPNGPDPIHN; ends and bridges not checked; UniProt Q8LFL4 58-69, looked up)	interacts with and activates BAM1 and BAM3 receptor	–
RLSPGGSNPQHH [mature TaCLE24b peptide]	–	19.4 nM
